These results are taken from ChEMBL document CHEMBL5050838 (2021).

Calls of active or inactive are those of the source. The calls are words filed in the database; no cut-off is given here.

Series [1] deals with JIMT-1. As to the kind of experiment: Inhibition of TACC3 expressed in human JIMT-1 cells at 1 uM and measured after 6 hrs by cellular thermal shift assay relative to control. In kind it is cell-based.
The test system of a further series is MDA-MB-436. The series can be described thus: Antiproliferative activity against human MDA-MB-436 cells after 72 hrs by Cell Titer Glo assay. Format: functional, cell-based. Particulars: MDA-MB-436, 72 h. A general note: In ATP-based viability assays light output follows the ATP content of the culture.
Another series concerns MDA-MB-157. As to the kind of experiment: Antiproliferative activity against human MDA-MB-157 cells after 72 hrs by Cell Titer Glo assay. In kind it is functional, cell-based. Particulars: MDA-MB-157, 72 h.
Another series relates to BT-474. The series can be described thus: Antiproliferative activity against T-DM1-resistant human BT-474 cells after 72 hrs by Cell Titer Glo assay. Format: functional, cell-based. Particulars: BT-474, 72 h.
The subject of series [2] is JIMT-1. The series can be described thus: Anticlonogenic activity against human JIMT-1 cells assessed as reduction number of cell colonies at 100 to 1000 nM measured after 12 days by crystal violet reagent based colony formation assay. Format: functional. Particulars: dose 100-1000 nM, time 12.0 day.
Series [3] relates to JIMT-1. As to the kind of experiment: Induction of mitotic arrest in human JIMT-1 cells assessed as change in p-histone H3 levels and measured by Western blot analysis. Format: functional, cell-based. Particulars: dose 100-5000 nM. For orientation: Immunoblotting shows a protein as a band on a membrane.
Series [4] relates to JIMT-1. The series can be described thus: Induction of DNA damage in human JIMT-1 cells assessed as change in p-H2AX levels and measured by Western blot analysis. Format: functional, cell-based. Particulars: dose 100-5000 nM.
Series [5] concerns JIMT-1. The series can be described thus: Induction of apoptosis in human JIMT-1 cells assessed as change in cleaved caspase-3 levels and measured by Western blot analysis. Format: functional, cell-based. Particulars: dose 100-5000 nM.
The test system of series [6] is JIMT-1. The series can be described thus: Induction of apoptosis in human JIMT-1 cells assessed as change in cleaved PARP levels and measured by Western blot analysis. In kind it is functional, cell-based. Particulars: dose 100-5000 nM.
For another series, the system named is MCF-12A. As to the kind of experiment: Antiproliferative activity against human MCF-12A cells after 72 hrs by Cell Titer Glo assay. In kind it is functional, cell-based.
Series [7] relates to JIMT-1. As to the kind of experiment: Antitumor activity against human JIMT-1 cells xenografted female nude mouse assessed as reduction in tumor growth at 5 mg/kg, po administered for every two days for 30 days. In kind it is functional, organism-based. The note with it: time 30.0 day. On the technique in general: Xenograft models place foreign cells or tissue in a host animal.

Series [8] in a line: Toxicity in human JIMT-1 cells xenografted female nude mouse assessed as effect on body weight at 5 mg/kg, po administered for every two days for 30 days. Particulars: in vivo, 720 h, time 30 day. In kind it is organism-based.
Series [9] deals with JIMT-1. The series can be described thus: Antitumor activity against human JIMT-1 cells xenografted female nude mouse assessed as reduction in tumor growth at 2 mg/kg, po administered for every two days for 30 days. In kind it is functional, organism-based. Particulars: time 30.0 day.
For series [10], the system named is JIMT-1. The series can be described thus: Antitumor activity against human JIMT-1 cells xenografted female nude mouse assessed as reduction in tumor growth at 2 mg/kg, iv administered for every two days for 30 days. Format: functional, organism-based. Particulars: time 30.0 day.
The nature of series [11]: Toxicity in human JIMT-1 cells xenografted female nude mouse assessed as effect on body weight at 2 mg/kg, po administered for every two days for 30 days. Particulars: in vivo, 720 h, time 30 day. In kind it is organism-based.
Series [12] can be described thus: Toxicity in human JIMT-1 cells xenografted female nude mouse assessed as effect on body weight at 2 mg/kg, iv administered for every two days for 30 days. The note with it: in vivo, 720 h, time 30 day. Format: organism-based.
Series [13] relates to JIMT-1. As to the kind of experiment: Antitumor activity against human JIMT-1 cells xenografted female nude mouse assessed as reduction in tumor growth at 25 mg/kg, po administered for every two days for 23 days. In kind it is functional, organism-based. The note with it: time 23.0 day.
The test system of series [14] is JIMT-1. The series can be described thus: Antitumor activity against human JIMT-1 cells xenografted female nude mouse assessed as reduction in tumor weight at 25 mg/kg, po administered for every two days for 23 days. The note with it: time 23.0 day. Format: functional, organism-based.
Series [15] is described as follows: Toxicity in human JIMT-1 cells xenografted female nude mouse assessed as effect on body weight at 25 mg/kg, po administered for every two days for 23 days. The note with it: in vivo, 552 h, time 23 day. Format: organism-based.
Series [16] can be described thus: Kinetic solubility in sodium phosphate buffer at pH 7.4 and at 25 degreeC after 2 hrs. In kind it is physicochemical. Particulars: read-out: Kinetic_solubility.
Series [17] can be described thus: Lipophilicity, log D of compound at pH 7.4 in octanol/phosphate buffer. In kind it is physicochemical.
Series [18] in a line: Plasma protein binding in human. In kind it is ADME, cell-free.
A short description of series [19]: Plasma protein binding in human assessed as unbound fraction. In kind it is ADME, cell-free.
Series [20] can be described thus: Half-life in mouse liver microsomes. Format: ADME, Microsome.
The nature of series [21]: Half-life in human liver microsomes. In kind it is ADME, Microsome.
Series [22] can be described thus: Intrinsic clearance in mouse liver microsomes. In kind it is ADME, Microsome. Particulars: read-out: CLH.
Series [23] can be described thus: Intrinsic clearance in human liver microsomes. Particulars: read-out: CLH. In kind it is ADME, Microsome.
The nature of series [24]: Apparent permeability of the compound across apical to basolateral side in human Caco-2 cells. In kind it is ADME, cell-based.
A short description of series [25]: Apparent permeability of the compound across basolateral to apical side in human Caco-2 cells. In kind it is ADME, cell-based.
The test system of series [26] is JIMT-1. The series can be described thus: Antiproliferative activity against human JIMT-1 cells after 72 hrs by Cell Titer Glo assay. Format: functional, cell-based. The note with it: JIMT-1, 72 h.
Series [27] concerns JIMT-1. As to the kind of experiment: Induction of mitotic arrest in human JIMT-1 cells at high concentration assessed as change in p-histone H3 levels and measured by Western blot analysis. In kind it is functional, cell-based. Particulars: dose 100-5000 nM.
Series [28] concerns JIMT-1. As to the kind of experiment: Induction of DNA damage in human JIMT-1 cells at high concentration assessed as change in p-H2AX levels and measured by Western blot analysis. Particulars: dose 100-5000 nM. In kind it is functional, cell-based.
Series [29] relates to JIMT-1. The series can be described thus: Induction of apoptosis in human JIMT-1 cells at high concentration assessed as change in cleaved caspase-3 levels and measured by Western blot analysis. In kind it is functional, cell-based. Particulars: dose 100-5000 nM.
In series [30] the test system is JIMT-1. As to the kind of experiment: Induction of apoptosis in human JIMT-1 cells at high concentration assessed as change in cleaved PARP levels and measured by Western blot analysis. Particulars: dose 100-5000 nM. In kind it is functional, cell-based.

`COc1ccc(-c2cc(Nc3ccnc(N4CCOCC4)n3)on2)cc1`: the outcome with JIMT-1 [1], with JIMT-1 [7], in the series with JIMT-1 [9], in the series on JIMT-1 [10], in the series on JIMT-1 [13] and with JIMT-1 [14] was Active. In addition, the IC50 (as a rule, the midpoint of a concentration-inhibition curve) in the series on MDA-MB-436 was 146 nM; in the series on MDA-MB-157, 330 nM; in the series on BT-474, 370 nM; in the series with MCF-12A, greater than 10000 nM. The Activity entry with JIMT-1 [2] is “Dose-Dependent Effect”; with JIMT-1 [3] it was “Dose-Dependent Effect”; in the series on JIMT-1 [4], “Dose-Dependent Effect”; in the series on JIMT-1 [5], “Dose-Dependent Effect”; with JIMT-1 [6] it was “Dose-Dependent Effect”; in series [8], “Non-Toxic”. The Activity result in [11], in series [12] and in series [15] was “Non-Toxic” throughout. The solubility kinetic at 2 h in series [16] is less than 1 µM. Besides, in series [17], the pH-dependent lipophilicity (logD) (usually lipophilicity at a set pH, counting ionised and neutral species) was 2.31. The PPB in series [18] was found to be 98.87%; in [19], 1.13%. Also, the half-life (as a rule, how long it takes for the measured level to halve) in [20] came to 5 min; in series [21], 12 min. Moreover, the values for the microsomal CLint in [22] and in series [23] were 329 µL/min/mg and 118 µL/min/mg, respectively. Further, the Papp A→B (usually how fast a substance crosses the layer from the apical side) in series [24] was determined as 19.1 ×10⁻⁶ cm/s. For the same molecule, the apparent permeability from basolateral to apical (Papp B→A) (as a rule, how fast a substance crosses the layer from the basolateral side) in series [25] amounted to 24.1 ×10⁻⁶ cm/s.
As to `CC(C)CNc1ccnc(NCc2csc(-c3ccccc3)n2)n1`, the IC50 in the series on JIMT-1 [26] worked out at 1800 nM; in the series on MDA-MB-436, 4140 nM; with MDA-MB-157, 1820 nM; in the series with BT-474, 3730 nM; with MCF-12A, 3460 nM. Further, the result in the series on JIMT-1 [27], in the series on JIMT-1 [28], in the series with JIMT-1 [29] and in the series on JIMT-1 [30] was Active.
Take `CCN(Cc1ccncc1)Cc1c(O)ccc2c(-c3cc4ccccc4oc3=O)cc(=O)oc12`: the IC50 in the series with JIMT-1 [26] is 1150 nM; with MDA-MB-436 it was 1300 nM; with MDA-MB-157, 1820 nM; in the series on BT-474 it was 990 nM; with MCF-12A, greater than 10000 nM. Also, the outcome in the series on JIMT-1 [27], in the series with JIMT-1 [28], in the series with JIMT-1 [29] and in the series on JIMT-1 [30] was Active.
